In PubChem BioAssay (NCI):
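These data come from cells grown in 96-well plates and exposed to compound for 48 hours at five concentrations. GI50 marks 50% less growth. TGI is the concentration that stops growth completely.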

The molecules below were run on HOP-62 NSCLC (assay: inhibition of tumour cell growth, NCI panel, 48 h).
Molecule Cc1ccnc2[nH]c(-c3ccc4ccccc4c3)cc(=O)c12 has a TGI of 12.6 µM. CC(=O)N=C1N(/C=C2\C(=O)Oc3ccccc3C2=O)C(=O)/C(=C/c2cccc(Cl)c2Cl)N1C was tested, and the TGI was 54.4 µM.

What follows are molecules tested on HOP-92 NSCLC (assay: inhibition of tumour cell growth, NCI panel, 48 h).
Cc1ccnc2[nH]c(-c3ccc4ccccc4c3)cc(=O)c12 gave a TGI of 4.78 µM. N#CC1C(=S)NC(c2ccccc2)=CC12CCCCC2 (stereo not drawn) was tested, and the TGI was 55.3 µM. CC(=O)N=C1N(/C=C2\C(=O)Oc3ccccc3C2=O)C(=O)/C(=C/c2cccc(Cl)c2Cl)N1C was tested, and the TGI was 9.38 µM.

These molecules were tested on HS 578T breast (assay: inhibition of tumour cell growth, NCI panel, 48 h).
In the case of Cc1ccnc2[nH]c(-c3ccc4ccccc4c3)cc(=O)c12, the TGI is reported as 5.6 µM. In the case of N#CC1C(=S)NC(c2ccccc2)=CC12CCCCC2 (stereo not drawn), the TGI is reported as greater than 100 µM. CN=C(n1ccnc1)n1ccnc1 was tested, and the TGI was greater than 100 µM. CC(=O)N=C1N(/C=C2\C(=O)Oc3ccccc3C2=O)C(=O)/C(=C/c2cccc(Cl)c2Cl)N1C showed a TGI of 26.1 µM.

What follows are molecules tested on HT29 colon (assay: inhibition of tumour cell growth, NCI panel, 48 h).
Work on Cc1ccnc2[nH]c(-c3ccc4ccccc4c3)cc(=O)c12 yielded a TGI of 12.4 µM. N#CC1C(=S)NC(c2ccccc2)=CC12CCCCC2 (stereo not drawn) was tested, and the TGI was greater than 100 µM. CN=C(n1ccnc1)n1ccnc1 showed a TGI greater than 100 µM. CC(=O)N=C1N(/C=C2\C(=O)Oc3ccccc3C2=O)C(=O)/C(=C/c2cccc(Cl)c2Cl)N1C gave a TGI of 49.1 µM.

The molecules below were run on IGROV1 ovarian (assay: inhibition of tumour cell growth, NCI panel, 48 h).
In the case of Cc1ccnc2[nH]c(-c3ccc4ccccc4c3)cc(=O)c12, the TGI is reported as 11.1 µM. Work on N#CC1C(=S)NC(c2ccccc2)=CC12CCCCC2 (stereo not drawn) yielded a TGI of 70.2 µM. CN=C(n1ccnc1)n1ccnc1 showed a TGI greater than 100 µM. CC(=O)N=C1N(/C=C2\C(=O)Oc3ccccc3C2=O)C(=O)/C(=C/c2cccc(Cl)c2Cl)N1C was tested, and the TGI was greater than 100 µM.

These molecules were tested on K-562 leukemia (assay: inhibition of tumour cell growth, NCI panel, 48 h).
Cc1ccnc2[nH]c(-c3ccc4ccccc4c3)cc(=O)c12 gave a TGI of 6.52 µM. N#CC1C(=S)NC(c2ccccc2)=CC12CCCCC2 (stereo not drawn) gave a TGI greater than 100 µM. For CN=C(n1ccnc1)n1ccnc1, the TGI was greater than 100 µM. With CC(=O)N=C1N(/C=C2\C(=O)Oc3ccccc3C2=O)C(=O)/C(=C/c2cccc(Cl)c2Cl)N1C the TGI was 63.3 µM.

Each molecule was assayed on KM12 colon (assay: inhibition of tumour cell growth, NCI panel, 48 h).
Cc1ccnc2[nH]c(-c3ccc4ccccc4c3)cc(=O)c12 showed a TGI of 20.6 µM. For N#CC1C(=S)NC(c2ccccc2)=CC12CCCCC2 (stereo not drawn), the TGI was 60.2 µM. In the case of CN=C(n1ccnc1)n1ccnc1, the TGI is reported as greater than 100 µM. Molecule CC(=O)N=C1N(/C=C2\C(=O)Oc3ccccc3C2=O)C(=O)/C(=C/c2cccc(Cl)c2Cl)N1C has a TGI greater than 100 µM.

These molecules were tested on LOX IMVI melanoma (assay: inhibition of tumour cell growth, NCI panel, 48 h).
Molecule Cc1ccnc2[nH]c(-c3ccc4ccccc4c3)cc(=O)c12 has a TGI of 12.2 µM. For N#CC1C(=S)NC(c2ccccc2)=CC12CCCCC2 (stereo not drawn), the TGI was 40.7 µM. Work on CN=C(n1ccnc1)n1ccnc1 yielded a TGI greater than 100 µM. In the case of CC(=O)N=C1N(/C=C2\C(=O)Oc3ccccc3C2=O)C(=O)/C(=C/c2cccc(Cl)c2Cl)N1C, the TGI is reported as greater than 100 µM.

What follows are molecules tested on M14 melanoma (assay: inhibition of tumour cell growth, NCI panel, 48 h).
Cc1ccnc2[nH]c(-c3ccc4ccccc4c3)cc(=O)c12 was tested, and the TGI was 23.2 µM. In the case of N#CC1C(=S)NC(c2ccccc2)=CC12CCCCC2 (stereo not drawn), the TGI is reported as 84.9 µM. Molecule CN=C(n1ccnc1)n1ccnc1 has a TGI greater than 100 µM. CC(=O)N=C1N(/C=C2\C(=O)Oc3ccccc3C2=O)C(=O)/C(=C/c2cccc(Cl)c2Cl)N1C showed a TGI of 34.4 µM.

The molecules below were run on MALME-3M melanoma (assay: inhibition of tumour cell growth, NCI panel, 48 h).
Molecule Cc1ccnc2[nH]c(-c3ccc4ccccc4c3)cc(=O)c12 has a TGI of 18.6 µM. N#CC1C(=S)NC(c2ccccc2)=CC12CCCCC2 (stereo not drawn) showed a TGI of 43.2 µM. With CN=C(n1ccnc1)n1ccnc1 the TGI was greater than 100 µM. For CC(=O)N=C1N(/C=C2\C(=O)Oc3ccccc3C2=O)C(=O)/C(=C/c2cccc(Cl)c2Cl)N1C, the TGI was greater than 100 µM.

Each molecule was assayed on MCF7 breast (assay: inhibition of tumour cell growth, NCI panel, 48 h).
Cc1ccnc2[nH]c(-c3ccc4ccccc4c3)cc(=O)c12 was tested, and the TGI was 3.91 µM. For N#CC1C(=S)NC(c2ccccc2)=CC12CCCCC2 (stereo not drawn), the TGI was 42.4 µM. CN=C(n1ccnc1)n1ccnc1 showed a TGI greater than 100 µM. For CC(=O)N=C1N(/C=C2\C(=O)Oc3ccccc3C2=O)C(=O)/C(=C/c2cccc(Cl)c2Cl)N1C, the TGI was greater than 100 µM.

The molecules below were run on MDA-MB-231 breast (assay: inhibition of tumour cell growth, NCI panel, 48 h).
With Cc1ccnc2[nH]c(-c3ccc4ccccc4c3)cc(=O)c12 the TGI was 8.58 µM. Work on N#CC1C(=S)NC(c2ccccc2)=CC12CCCCC2 (stereo not drawn) yielded a TGI greater than 100 µM. CN=C(n1ccnc1)n1ccnc1 gave a TGI greater than 100 µM. For CC(=O)N=C1N(/C=C2\C(=O)Oc3ccccc3C2=O)C(=O)/C(=C/c2cccc(Cl)c2Cl)N1C, the TGI was 86.4 µM.

Each molecule was assayed on MDA-MB-435 (assay: inhibition of tumour cell growth, NCI panel, 48 h).
For Cc1ccnc2[nH]c(-c3ccc4ccccc4c3)cc(=O)c12, the GI50 was 0.204 µM and the TGI was 0.453 µM. N#CC1C(=S)NC(c2ccccc2)=CC12CCCCC2 (stereo not drawn) showed a TGI of 40.3 µM. CN=C(n1ccnc1)n1ccnc1 was tested, and the TGI was greater than 100 µM. In the case of CC(=O)N=C1N(/C=C2\C(=O)Oc3ccccc3C2=O)C(=O)/C(=C/c2cccc(Cl)c2Cl)N1C, the TGI is reported as greater than 100 µM.

These molecules were tested on MDA-N (assay: inhibition of tumour cell growth, NCI panel, 48 h).
Cc1ccnc2[nH]c(-c3ccc4ccccc4c3)cc(=O)c12 was tested, and the GI50 was 0.206 µM and the TGI was 0.448 µM. For N#CC1C(=S)NC(c2ccccc2)=CC12CCCCC2 (stereo not drawn), the TGI was greater than 100 µM. CN=C(n1ccnc1)n1ccnc1 gave a TGI greater than 100 µM. With CC(=O)N=C1N(/C=C2\C(=O)Oc3ccccc3C2=O)C(=O)/C(=C/c2cccc(Cl)c2Cl)N1C the TGI was greater than 100 µM.

Each molecule was assayed on MOLT-4 leukemia (assay: inhibition of tumour cell growth, NCI panel, 48 h).
Cc1ccnc2[nH]c(-c3ccc4ccccc4c3)cc(=O)c12 gave a TGI greater than 100 µM. With N#CC1C(=S)NC(c2ccccc2)=CC12CCCCC2 (stereo not drawn) the TGI was 53.2 µM. CN=C(n1ccnc1)n1ccnc1 was tested, and the TGI was greater than 100 µM.
